# Results: patent publication US7893081B2, “Tyrosine kinase inhibitors” (Merck & Co., Inc., priority 2007, dated 2011)
# Where a name gives a salt, the structure may show the parent alone.
# How the values were obtained:
# Hygroscopicity (25° C.) = type: physicochemical; details: up to 80% RH
# [1] = Solubility in water of the salt forms of Compound 1; type: physicochemical; details: for Native pH: pH of the aqueous solubility sample
# human c-Met = human c-Met (Homo sapiens, UniProt P08581); test: biochemical
# human c-Met, sequence (P08581 956-1390 limits assumed): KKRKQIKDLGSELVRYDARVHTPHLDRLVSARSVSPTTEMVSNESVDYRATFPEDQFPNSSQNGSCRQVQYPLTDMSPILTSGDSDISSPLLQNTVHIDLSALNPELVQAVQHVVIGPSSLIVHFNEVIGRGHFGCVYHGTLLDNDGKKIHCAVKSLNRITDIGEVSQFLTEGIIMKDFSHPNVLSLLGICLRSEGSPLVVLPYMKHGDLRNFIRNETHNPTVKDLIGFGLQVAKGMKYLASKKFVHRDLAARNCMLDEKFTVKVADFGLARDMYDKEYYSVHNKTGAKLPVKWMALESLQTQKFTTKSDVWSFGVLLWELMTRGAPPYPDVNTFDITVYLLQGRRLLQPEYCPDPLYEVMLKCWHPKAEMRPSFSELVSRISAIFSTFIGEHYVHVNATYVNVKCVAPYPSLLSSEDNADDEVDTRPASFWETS
# Experimental: The procedure for determining the potency of a compound to inhibit c-Met kinase comprises the following steps: • 1. Prepare 3-fold serial diluted compound solutions in 100% dimethyl sulfoxide (DMSO) at 20× of the desired final concentrations in a 96 well plate. • 2. […] In a black assay plate, add 2.5 μl of compound solution (or DMSO) and 37.5 μl of master reaction mix per well. Initiate the kinase reaction by adding 10 μl of 0.25 mM MgATP per well. Allow the reactions to proceed for 80 min at room temperature. The final conditions for the reaction are 0.2 nM c-Met, 0.5 μM substrate, 50 μM MgATP, 5 mM MgCl2, 100 mM NaCl, 2 mM DTT, 0.1 mg/ml BSA, 50 mM Tris (pH 7.4) and 5% DMSO. • 4. […] Read HTRF signals on a Victor reader (PerkinElmer) in HTRF mode after 60 min. • 6.
# [2] = Chemical and physical stability at 40° C./75% relative humidity; type: physicochemical; details: 6 Months at 40° C./75% relative humidity (RH)
# [3] = listed as Crystalline Sodium salt, sodium salt dihydrate
# [4] = listed as Crystalline potassium salt, potassium salt monohydrate
structure (smiles),measurement,setting,value
"CN(C[C@@H]1COCCO1)S(=O)(=O)Nc1ccc2ccc3ncc(-c4cnn(C)c4)cc3c(=O)c2c1 [Compound 1, N-[(2R)-1,4-dioxan-2-ylmethyl]-N-methyl-N′-[3-(1-methyl-1H-pyrazol-4-yl)-5-oxo-5H-benzo[4,5]cyclohepta[1,2-b]pyridin-7-yl]sulfamide]",Hygroscopicity (25° C.),Hygroscopicity (25° C.); listed as Free Acid,0.4% up to
same,Solubility in water,[1]; listed as Free Acid,0.003 mg/mL
same,IC50,human c-Met,≥ 50 µM
"CN(C[C@@H]1COCCO1)S(=O)(=O)Nc1ccc2ccc3ncc(-c4cnn(C)c4)cc3c(=O)c2c1 [Compound 1 sodium salt dihydrate, N-[(2R)-1,4-dioxan-2-ylmethyl]-N-methyl-N′-[3-(1-methyl-1H-pyrazol-4-yl)-5-oxo-5H-benzo[4,5]cyclohepta[1,2-b]pyridin-7-yl]sulfamide sodium salt dihydrate]",Hygroscopicity (25° C.),Hygroscopicity (25° C.); [3],0.14% up
same,Native pH,[1]; [3],pH = 10.5
same,Solubility in water,[1]; [3],>400 mg/mL
same,chemical and physical stability,[2],chemically and physically stable
"CN(C[C@@H]1COCCO1)S(=O)(=O)Nc1ccc2ccc3ncc(-c4cnn(C)c4)cc3c(=O)c2c1 [Compound 1 potassium salt monohydrate, N-[(2R)-1,4-dioxan-2-ylmethyl]-N-methyl-N′-[3-(1-methyl-1H-pyrazol-4-yl)-5-oxo-5H-benzo[4,5]cyclohepta[1,2-b]pyridin-7-yl]sulfamide potassium salt monohydrate]",Hygroscopicity (25° C.),Hygroscopicity (25° C.); [4],0.81% up
same,Native pH,[1]; [4],pH = 10.7
same,Solubility in water,[1]; [4],>170 mg/mL
